# Values of other authors in patent US6793912B2, “Treatment of cancers by inhalation of stable platinum-containing formulations” (Transave Inc., priority 2001, dated 2004).
# Conditions: administered by inhalation vs intravenously
smiles,measurement,value
"N.N.[Cl][Pt][Cl] [Cisplatin, cis-diamminedichloroplatinum(II)]","dose required to elicit a response in animal models, more effective in the lung than intravenously",10-100 fold
